Source: patent US20100221709A1, “METHODS FOR IDENTIFYING AGENTS THAT MODULATE APOPTOSIS IN CELLS THAT OVER-EXPRESS A BCL-2 FAMILY MEMBER PROTEIN” (priority 2005, published 2010)

Assays:
Format in all cases: cell-based, human
[1] = test system: myeloma cell lines (RPMI-8226, U266, NCI-H929); settings: 5 to 20 μg/ml
Description: Cell survival was assayed by exclusion of propidium iodide (PI) (10 mg/ml) by unfixed cells. Annexin V-FITC (Pharmingen) or 3,3′-dihexyloxacarbocyanine iodide (DiOC6(3)) (Molecular Probes) staining was analyzed together with PI to discriminate early apoptotic cells. Apoptotic cells were also measured as sub-G1 events among ethanol-fixed cells stained with […] PI. All cell samples were analyzed using a benchtop FACSCalibur® (Becton Dickinson, San Jose, Calif.) flow cytometer. Flow data were analyzed using MultiCycle AV software (Phoenix Flow Systems). For intracellular pH measurements, cell pellets were washed once and resuspended in 2 ml of HEPES-buffered medium (no phenol red and no serum). Carboxy-SNARF®-1 acetoxymethyl (AM) ester (Molecular Probes, 1 mM stock in DMSO, stored at −20° C.), a long wavelength fluorescent pH indicator, was added to a final concentration of 10 μM, and the cells were incubated for 30 min at 37° C. Following incubation with SNARF®-1 AM, cells were sedimented and the pellets were held on ice. Immediately before analysis, pellets were resuspended in Earle's balanced salt solution (experimental buffer) or high-[K^+] buffer containing nigericin (calibration samples).

NCI-H929 myeloma cells = test: [3H]-thymidine incorporation
Description: (§1) RPMI-8226 cells were grown in 96 well plates for 24 h prior to addition of 2-methoxy antimycins. Antimycin stocks in dimethyl sulfoxide (DMSO) were serially diluted in RPMI. Cells were incubated for 48 h with compounds at final compound concentrations ranging from 10^−4 to 10^−8 M. MTT cell proliferation assays were performed in quadruplicate and percent growth inhibitions were calculated as (A570 (control cells)-A570 (treated cells))/A570 (control cells). GI50 was extrapolated from semi-log plots of the dose response for each compound. […] After 72 h drug exposures, 1 μCi/ml [^3H]-thymidine was added to wells. Cells were incubated for an additional 24 h, and then transferred to GF/C filter plates (Packard) using a plate washer. Filters were dried, added to scintillant, and counted in a TopCount® scintillation counter (Packard). Drug response is expressed as the percentage of vehicle-treated controls, and each value shown is the average of three determinations.

U266 myeloma cells = test: [3H]-thymidine incorporation
Description: as §1

RPMI-8226 myeloma cells = test: [3H]-thymidine incorporation
Description: as §1

antimycin A
cytotoxicity, PI exclusion [1]: sensitive
50% growth inhibition (GI50) (NCI-H929 myeloma cells): 0.2 µg/mL
50% growth inhibition (GI50) (U266 myeloma cells): 0.05 µg/mL
50% growth inhibition (GI50) (RPMI-8226 myeloma cells): 0.1 µg/mL
